Data: the SangsterLogP compilation

Assay: method code SF-AS, from PMID: 43458

logP	SMILES
1.8	CCCOC(=O)c1cc(O)c(O)c(O)c1
1.3	CCOC(=O)c1cc(O)c(O)c(O)c1
2.46	CC(C)COC(=O)c1cc(O)c(O)c(O)c1
0.86	COC(=O)c1cc(O)c(O)c(O)c1
2.41	CCCCOC(=O)c1cc(O)c(O)c(O)c1

SMILES	logP
CCCCCCCCOC(=O)c1cc(O)c(O)c(O)c1	3.66
